Consider five compounds from patent publication USRE37314E, “Pyrimidine derivatives” (Shionogi Seiyaku Kabushiki Kaisha, priority 1991, dated 2001).

The target of this assay is T1, HMG-CoA reductase (Rattus norvegicus, UniProt P51639).
T1 construct: The rat liver microsome sample (100 μl), which was preserved at -80° C; from tissue; host or cells: liver microsomes of Sprague-Dawley rats fed 2% cholestyramine
T1 sequence (P51639 1-887): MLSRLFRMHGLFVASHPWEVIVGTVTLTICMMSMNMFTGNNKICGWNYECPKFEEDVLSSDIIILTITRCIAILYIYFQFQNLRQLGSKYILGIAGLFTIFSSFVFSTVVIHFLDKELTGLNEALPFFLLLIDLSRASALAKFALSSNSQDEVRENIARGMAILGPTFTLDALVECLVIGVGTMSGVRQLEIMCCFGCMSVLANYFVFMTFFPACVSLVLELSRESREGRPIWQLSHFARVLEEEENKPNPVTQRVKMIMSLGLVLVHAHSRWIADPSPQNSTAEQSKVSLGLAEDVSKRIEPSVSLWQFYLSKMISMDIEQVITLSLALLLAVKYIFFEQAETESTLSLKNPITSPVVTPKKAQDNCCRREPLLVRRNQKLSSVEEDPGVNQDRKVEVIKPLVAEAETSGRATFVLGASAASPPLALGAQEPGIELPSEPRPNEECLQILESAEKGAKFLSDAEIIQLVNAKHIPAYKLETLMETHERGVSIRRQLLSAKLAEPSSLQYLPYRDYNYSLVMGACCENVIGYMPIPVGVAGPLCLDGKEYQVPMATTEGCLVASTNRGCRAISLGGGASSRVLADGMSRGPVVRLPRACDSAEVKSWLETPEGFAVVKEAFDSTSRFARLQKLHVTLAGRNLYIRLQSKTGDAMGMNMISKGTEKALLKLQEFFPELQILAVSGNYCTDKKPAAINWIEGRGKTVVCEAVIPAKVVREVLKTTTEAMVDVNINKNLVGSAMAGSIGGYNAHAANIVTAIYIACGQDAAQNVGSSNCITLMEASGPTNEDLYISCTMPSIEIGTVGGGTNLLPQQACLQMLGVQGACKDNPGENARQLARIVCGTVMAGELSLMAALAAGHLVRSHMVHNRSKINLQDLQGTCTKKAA
The experiment in a line: HMG-CoA reductase inhibitory effect (rat liver microsome, [14C]HMG-CoA, TLC/scintillation). In kind it is biochemical. Particulars: comparative activity, with activity of Mevinolin (sodium salt) as reference drug taken as 100, sodium salt of test compound, 37° C., 30 minutes. The procedure: The HMG-CoA reductase inhibitory effect
(1) Preparation of rat liver microsome
Sprague-Dawley rats, which were in free access to ordinary dietes containing 2% cholestyramine and water for 2 weeks, were used for the preparation of rat liver microsome. The thus obtained microsome was the purified according to the manner by Juroda et al., Biochem. Biophys. Act, 486, 70 (1977). The microsomal fraction obtained by centrifugation at 105,000×g was washed once with a buffered solution containing 15 mM nicotinamide and 2 mM magnesium chloride (in a 100 mM potassium phosphate buffer, pH 7.4). It was homogenized with a buffer containing nicotinamide and magnesium chloride at the same weight as the liver employed. The thus obtained homogenate was cooled down and kept at -80° C.
(2) Measurement of the HMG-CoA reductase inhibitory activities
The rat liver microsome sample (100 μl), which was preserved at -80° C., was fused at 0° C. and diluted with 0.7 ml of a cold potassium phosphate buffer (100 mM, pH7.4). This was mixed with 0.8 ml of 50 mM EDTA (buffered with the aforementioned potassium phosphate buffer) and 0.4 ml of 100 mM dithiothreitol solution (buffered with the aforementioned potassium phosphate buffer), and the mixture was kept at 0° C. The microsome solution (1.675 ml) was mixed with 670 μl of 25 mM NADPH (buffered with the aformentioned potassium phosphate buffer), and the solution was added to the solution of 0.5 mM [3^-14 ](HMG-CoA (3mCi/mmol). A solution (5 μl) of sodium salt of the test compound dissolved in potassium phosphate buffer is added to 45 μl of the mixture. The resulting mixture was incubated at 37° C. for 30 minutes and cooled. After termination of the reaction by addition of 10 μl of 2N·HCl, the mixture was incubated again at 37° C. for 15 minutes and then 30 μl of this mixture was applied to thin-layer chromatography of silica gel of 0.5 mm in thickness (Merck AG, Art 5744). The chromatograms were developed in toluene/acetone (1/1) and the spot, whose Rf value was between 0.45 to 0.60, were scraped. The obtained products were put into a vial containing 10 ml of scintillator to measure specific radio-activity with scintillation counter.
(In general: Liver microsomes are vesicles of endoplasmic reticulum, rich in cytochrome P450 enzymes.)

As to `CC(C)c1nc(N(C)S(C)(=O)=O)nc(-c2ccc(F)cc2)c1C=CC(O)CC(O)CC(=O)O` (single isomer, unassigned) [Compound 1a-1], the “HMG-CoA reductase inhibitory activities” value stood at 442. As to `CC[C@H](C)C(=O)O[C@H]1C[C@@H](C)C=C2C=C[C@H](C)[C@H](CC[C@@H](O)C[C@@H](O)CC(=O)O)[C@H]21` [Mevinolin Na, Mevinolin, reference compound], the “HMG-CoA reductase inhibitory activities” value was 100. In the case of `CC(C)c1nc(N(C)NS(C)(=O)=O)nc(-c2ccc(F)cc2)c1C=CC(O)CC(O)CC(=O)O` (centres unmarked) [Compound 1a-7] it was 260. For `COc1nc(-c2ccc(F)cc2)c(C=CC(O)CC(O)CC(=O)O)c(C(C)C)n1` (centres unmarked) [Compound 1a-5], the “HMG-CoA reductase inhibitory activities” value came out at 279. In the case of `CSc1nc(-c2ccc(F)cc2)c(C=CC(O)CC(O)CC(=O)O)c(C(C)C)n1` (centres unmarked) [Compound 1a-3] it was 385.
